The test system of series [1] is P. falciparum 3D7 strain. Put plainly: Dot blot / Western blot of treated P. falciparum cultures (ubiquitinated proteins, amyloid fibrils). The series is classed as cell-based, Plasmodium falciparum. As to the method: Cultures of the P. falciparum 3D7 strain were sorbitol synchronized in ring stages, and after 24 h were treated for 90 min with AID-X-2020 concentrations ranging from 33 nM to 33 μM. After that time, cultures were spun down and pellets were washed once with ice-cold PBS supplemented with EDTA-free protease inhibitor cocktail (PIC, Roche; 1 PIC tablet/10 mL PBS). For anti-ubiquitin Western blots, PBS was also supplemented with 20 mM N-ethylmaleimide. […] Protein extracts were quantified with the bicinchoninic acid assay (ThermoFisher Scientific), following the manufacturer's instructions. […]
For Western blots, 15 μg of saponin-extracted proteins were incubated for 5 min at 95° C. diluted in Laemmli solution (0.14 M SDS, 0.125 M tris-HCl, pH 6.8, 20% glycerol, 10% 2-mercaptoethanol, 3 mM bromophenol blue) and resolved by SDS-PAGE in 12% bis-tris acrylamide (Bio-Rad) gels run at 80 V until samples entered the resolving gel and at 120 V afterwards. […] After probing with secondary antibodies, for both dot blot and Western blot membranes, four washes with TBS-Tween and one last wash with TBS were done and peroxidase substrate (ECL Prime Western Blotting Detection Reagent, Amersham Life Science, Inc.) was poured on the membrane and chemiluminescent signal was measured in a LAS 4000 reader (ImageQuant) at different exposure times.

The target of a further series is T1, preformed Aβ40 fibrils (Homo sapiens, UniProt P05067).
T1 construct: Amyloid-β peptide fragment 1-40 (Aβ40); purchased GenScript
Put plainly: Disaggregation of preformed Aβ40 fibrils. The series is classed as biochemical. The conditions noted are these: 24 h after fibril formation, ThT and TEM. As to the method:
To test the effect of AID-X-2020 on already formed amyloid fibrils, Aβ40 DMSO solutions were diluted to 25 μM in PBS and incubated as above in order to allow fibril formation. Then, AID-X-2020 was added at different concentrations (0.1 μM AID-X-2020, 1 μM AID-X-2020 and 10 μM AID-X2020) and the mixture was incubated in the same conditions for another 24 h. The final samples always contained less than 5% DMSO to avoid interference of this solvent on Aβ40 amyloid fibril formation. Finally, ThT treatment and TEM analysis was performed as described in section 3.1 of EXAMPLE 3. The analysis of aggregation inhibition and disaggregation performed with aggregative peptides present in P. falciparum proteins were conducted in the same way.

Series [2] relates to P. falciparum ring or trophozoite stage cultures. Put plainly: Stage of growth inhibition analysis. To be noted: added to ring stages at its IC80. It counts as cell-based, Plasmodium falciparum. As to the method:
For stage of growth inhibition analysis, P. falciparum cultures were synchronized at ring or trophozoite stages by repeated treatment with 5% sorbitol or 70% Percoll, respectively. Half of each culture remained untreated and the other half was treated with the IC80 of AID-X-2020. At different time points, culture samples were stained with Giemsa and the number of rings, early and mature trophozoites and schizonts was counted by microscopic examination of at least 100 pRBCs for each sample. Pictures were taken with a Nikon Eclipse 50i microscope equipped with a DS-Fi1 camera (Nikon).

The subject of series [3] is P. falciparum 3D7 strain. Put plainly: P. falciparum growth inhibition assay (3D7 strain). It counts as cell-based, Plasmodium falciparum. To be noted: for IC50: Plasmodium falciparum, 3D7 strain. As to the method: After the synchronization process, a new culture at 1.5% parasitemia and 2% hematocrit was established and 150 μL aliquots of it were transferred to 96-well plates.
The required amounts of peptides, antimalarial compounds and dyes were added in each well at different concentrations and in triplicates. A positive growth control of untreated parasites and a negative growth control of parasites treated with a lethal dose of chloroquine (1 μM) were also included.
Parasites were grown for 48 h, a complete replication cycle, in standard culturing conditions (5% O2, 5% CO2, and 90% N2 at 37° C.). After the incubation period, 3 μL of culture from each well were mixed with 197 μL of PBS containing 0.1 μM Syto 11 (Thermo Fisher Scientific Inc), to obtain a final concentration of ca. 1-10×10^6 cells/ml.
Parasitemia was assessed by flow cytometry using a LSRFortessa flow cytometer (BD Biosciences, San Jose, CA, USA) set up with the 4 lasers, 20 parameters standard configuration. The single-cell population was selected on a forward-side scatter scattergram.
Growth inhibition was calculated taking as reference values both the growth rate of the untreated culture and the growth rate of the culture treated with chloroquine.

Series [4] relates to human umbilical vein endothelial cell cultures. Kind of series: Cytotoxicity (CC50) and in vitro therapeutic index. The series is classed as cell-based.
Series [5] can be described thus: Cytotoxicity (CC50) and in vitro therapeutic index. To be noted: human umbilical vein endothelial cells (HUVEC); human umbilical vein endothelial cell cultures. It counts as cell-based, human.

The structures appear in SMILES notation. Where two headings read alike, the source gives them in different places.

Broadly, the IC50 is the concentration needed to halve the response being measured. As usually defined, the CC50 is the concentration giving 50% cytotoxicity. High values mean better tolerance by the cells, low ones harm at low concentration.

T1 sequence (P05067 672-711 limits assumed, species assumed): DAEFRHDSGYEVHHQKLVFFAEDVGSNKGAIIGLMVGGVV

In the case of `CCN(CC)c1ccc(/C=C/c2cc[n+](CCCCCCCCCC[n+]3ccc(/C=C/c4ccc(N(CC)CC)cc4)c(C)c3)cc2C)cc1` [AID-X-2020, 1,1′-(decane-1,10-diyl)bis{4-[(E)-4-(diethylamino)styryl]-3-methylpyridin-1-ium} dibromide], the “effect on ubiquitinated proteins” value in the series with P. falciparum 3D7 strain [1] (90 nM treatment of P. falciparum cultures, along time) is reported as “reduction in ubiquitinated proteins”. Also, in the series with P. falciparum 3D7 strain [1] (90 min exposure, dot blot), the “concentration inhibiting amyloid fibril formation” value was > 3 µM. Also, at preformed Aβ40 fibrils, the “concentration disassembling preformed Aβ40 fibrils” value is listed as > 90 nM. For the same compound, the “stage of growth arrest” value in series [2] is “arrested the life cycle of the pathogen at trophozoite stage”. For the same compound, the “in vitro IC10” value with P. falciparum 3D7 strain [3] (P. falciparum cultures) came out at 27 nM. Further, the IC50 in the series on P. falciparum 3D7 strain [3] (48 h, Table 2, read-out: IC50 in 3D7 strain (μM) ± SEM) turned out to be 0.09 ± 0.02 µM; in the series on P. falciparum 3D7 strain [3] (Example 8, read-out: IC50 in 3D7 strain), 0.09 µM; with P. falciparum 3D7 strain [3] (read-out: IC50 in P. falciparum in vitro cultures), 0.09 ± 0.002 µM. Moreover, the “Therapeutic index in vitro” value in series [4] (50% cytotoxic concentration (CC50)/IC50 in 3D7 strain) is recorded as 23.3. For the same compound, the “therapeutic index (CC50/IC50)” value in series [4] (HUVEC CC50, text value) is on record as 37.8. The midpoint of cytotoxicity in series [5], the CC50, lay at 3400 nM.

These data come from US20240415825A1, “COMPOUNDS FOR THE TREATMENT OF MALARIA” (FUNDACIÓ INSTITUT DE BIOENGINYERIA DE CATALUNYA, priority 2021, published 2024).
